Data as given in paper PMC10258794, “To Fold or Not to Fold: Diastereomeric Optimization of an α-Helical Antimicrobial Peptide” (Journal of Medicinal Chemistry, 2023).
In brackets after ≈: the same amount, converted by molar mass. Read-outs that look alike come from different tables or passages of the source. Non-standard residues stand in square brackets, D forms with d. Residues, ends and D or L forms follow the SMILES beside them.

Assays:
[1] = EYPC vesicle leakage assay; format: biochemical; details: 10 μg/mL of compound; 10 mM TRIS, 107 mM NaCl, pH 7.4
Protocol: (§1) 5(6)-carboxyfluorescein (CF) was purchased from Sigma. EYPC, EYPG, and a Mini-Extruder were purchased from Avanti Polar Lipids. Egg PC or Egg PG thin lipid layers were prepared by evaporating a solution of 100 mg of EYPC or EYPG in 4 mL of MeOH/CHCl3 (1:1) on a rotary evaporator at room temperature and then dried in vacuo overnight. […] Extravesicular components were removed by gel filtration (Sephadex G-50) with 10 mM TRIS, 107 mM NaCl, pH 7.4 buffer. Final conditions: ∼2.5 mM PC or PG; inside: 50 mM CF, 10 mM TRIS, 10 mM NaCl, pH 7.4 buffer; outside: 10 mM TRIS, 107 mM NaCl, pH 7.4. […] The CF efflux was monitored at λem 517 nm (λex 492 nm) as a function of time after addition of the desired volume of peptide from 2 mg/mL stock in mQ water at t = 45 s, 10 and 50 μg/mL were monitored for both EYPC and EYPG. […] Fluorescence intensities were then normalized to the maximal emission intensity using I(t) = (It – I0)/(I∞ – I0) where I0 = It at peptide addition, I∞ = It at saturation of lysis.

[2] = system: Pseudomonas aeruginosa, Klebsiella pneumoniae, Acinetobacter baumannii, Escherichia coli, and methicillin-resistant Staphylococcus aureus; details: summary of Table 1
In short: (§2)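 A colony was grown overnight in LB at 37 °C, diluted in MH medium pH 7.4 to OD600 0.022 and added to 1/2 serial dilutions of compound (final about 5 × 10^5 CFU).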

P. aeruginosa PAO1 = system: P. aeruginosa PAO1
In short: as §2

E. coli W3110 = system: E. coli W3110
In short: as §2

A. baumannii ATCC19606 = system: A. baumannii ATCC19606
In short: as §2

human red blood cells = test: Hemolysis assay (MHC)
Protocol: To determine the MHC stock solutions, 8 mg/mL peptide in PBS (pH 7.4) was prepared, and 50 μL was diluted serially by l/2 in 50 μL of PBS (pH 7.4) in a 96-well plate (Costar or Nunc, polystyrene, untreated). […] Plasma was discarded, and the pellet was re-suspended in a 15 mL Falcon tube in 5 mL of PBS. The washing was repeated three times, and the remaining pellet was re-suspended in 10 mL of PBS. The hRBC suspension (50 μL) was added to each well, and the plate was incubated at room temperature for 4 h. MHC end points were determined by visual determination of the wells after the incubation period. Controls on each plate included a blank medium control (50 μL PBS + 50 μL of hRBCs suspension) and a hemolytic activity control (mQ-deionized water 50 μL + 50 μL hRBC suspension).

S. aureus COL MRSA = system: S. aureus COL MRSA
In short: as §2

K. pneumoniae NCTC418 = system: K. pneumoniae NCTC418
In short: as §2

[3] = EYPG vesicle leakage assay; format: biochemical; details: 10 μg/mL of compound; 10 mM TRIS, 107 mM NaCl, pH 7.4
Protocol: as §1

[4] = CD spectroscopy, α-helix content; format: physicochemical; details: 5 mM DPC in 7 mM PB buffer pH 7.4, Dichroweb Contin LL set 4
Protocol: CD experiments were measured on a Jasco J-715 spectropolarimeter. All the experiments were performed using Hellma Suprasil 110-QS 0.1 cm cuvettes. For each peptide, the measurements were performed in phosphate buffer (PB, pH = 7.4, 7 mM), 10% TFE, 20% TFE, 5 mM DPC. The buffer was degassed for 10 min under high vacuum before each set of experiments. The concentration of the peptides was 0.100 mg/mL, and each sample was measured in one accumulation. The scan rate was 20 nm/min, pitch was 0.5 nm, response was 16 s, and bandwidth was 1.0 nm. The nitrogen flow was kept >8 L/min. After each measurement, the cuvettes were washed successively with milli-Q H2O and PB (pH 7.4). The baseline was recorded under the same conditions and subtracted manually. Primary CD spectra were analyzed using DichroWeb[58] and Contin-LL method (set 4).[74]

[5] = MH broth pH 7.4, 16–20 h, 37 °C
[6] = supplementary CSV, ranges of Table 1 given as one number

CC(C)C[C@H](NC(=O)[C@H](CC(C)C)NC(=O)[C@@H](CC(C)C)NC(=O)[C@H](CCCCN)NC(=O)[C@@H](CC(C)C)NC(=O)[C@@H](CC(C)C)NC(=O)[C@H](CCCCN)NC(=O)[C@@H](CC(C)C)NC(=O)[C@@H](CC(C)C)NC(=O)[C@H](CCCCN)NC(=O)[C@@H](N)CCCCN)C(N)=O [HP25, KKllKllKlLL]
EYPC vesicle leakage (%) [1]: 4% | MIC, span over E. coli, P. aeruginosa, and A. baumannii [2]: 4 to 32 µg/mL | MIC P. aeruginosa PAO1 (P. aeruginosa PAO1; [5]): 8 to 16 µg/mL | MIC P. aeruginosa PAO1 (P. aeruginosa PAO1; [6]): 12 µg/mL (≈ 9.08 µM) | MIC E. coli W3110 (E. coli W3110; [5]): 8 to 16 µg/mL | MIC E. coli W3110 (E. coli W3110; [6]): 12 µg/mL (≈ 9.08 µM) | MIC A. baumannii ATCC19606 (A. baumannii ATCC19606; [5]): 32 µg/mL (≈ 24.2 µM) | MIC A. baumannii ATCC19606 (A. baumannii ATCC19606; [6]): 32 µg/mL (≈ 24.2 µM)

CC(C)C[C@H](NC(=O)[C@H](CC(C)C)NC(=O)[C@H](CC(C)C)NC(=O)[C@@H](CCCNC(=N)N)NC(=O)[C@H](CC(C)C)NC(=O)[C@H](CC(C)C)NC(=O)[C@@H](CCCNC(=N)N)NC(=O)[C@H](CC(C)C)NC(=O)[C@H](CC(C)C)NC(=O)[C@@H](CCCNC(=N)N)NC(=O)[C@H](N)CCCNC(=N)N)C(N)=O [HP33, rrLLrLLrLLL] (H-[dR][dR]LL[dR]LL[dR]LLL-NH2)
MHC (human red blood cells; human red blood cells in PBS pH 7.4, 4 h, room temperature): 125 µg/mL | MHC (human red blood cells; supplementary CSV, human red blood cells): 125 µg/mL | EYPC vesicle leakage (%) [1]: 56% | MIC S. aureus COL MRSA (S. aureus COL MRSA; [5]): 2 to 4 µg/mL | MIC S. aureus COL (S. aureus COL MRSA; [6]): 3 µg/mL (≈ 2.09 µM) | MIC K. pneumoniae NCTC418 (K. pneumoniae NCTC418; [5]): 4 to 8 µg/mL | MIC K. pneumoniae NCTC418 (K. pneumoniae NCTC418; [6]): 6 µg/mL (≈ 4.18 µM) | MIC P. aeruginosa PAO1 (P. aeruginosa PAO1; [5]): 4 to 8 µg/mL | MIC P. aeruginosa PAO1 (P. aeruginosa PAO1; [6]): 6 µg/mL (≈ 4.18 µM) | MIC E. coli W3110 (E. coli W3110; [5]): 4 to 8 µg/mL | MIC E. coli W3110 (E. coli W3110; [6]): 6 µg/mL (≈ 4.18 µM) | MIC A. baumannii ATCC19606 (A. baumannii ATCC19606; [5]): 4 µg/mL (≈ 2.79 µM) | EYPG vesicle leakage (%) [3]: 85% | α-helix content (%) [4]: 63%
